Experimental data: US12672653B2, “Pest management” (priority 2017, dated 2026)
In brackets after ≈: the same amount, converted by molar mass. Like-named read-outs stand apart in the source and are kept apart here.

Columns and labels:
Myzus persicae [1] = conditions: 96 hours exposure; first bioassay dose-response curve
Myzus persicae [2] = assay: whole plant or invertebrate; conditions: foliar
[3] = tested on: Dorsal root ganglion (DRG) cells; assay: Whole-cell patch-clamp current-clamp recording of dorsal root ganglion cells (membrane potential, action potentials); assay type: cell-based, Sprague-Dawley rats
Method: (§1) Dorsal root ganglion (DRG) cells were obtained from young adult male Sprague-Dawley rats weighing 220-250 g. The rats were housed in groups of 4 in an air conditioned room on a 12 hour light/dark cycle with food and water available ad libitum.
(§2) Animals were humanely killed and the lower thoracic and upper lumbar region DRG removed and stored in chilled phosphate buffered saline (PBS). The DRG were carefully trimmed and then digested using 2 mg/mL trypsin (type XII-S) and 2 mg/mL collagenase (type XI), freshly made up in PBS, for 45-60 mins in a shaking water bath at 37° C. Subsequent to extensive washing with PBS and then plating medium (PM; 50:50 mix of DMEM/Hams F12, supplemented with 10% foetal bovine serum, 100 U/mL penicillin and 100 μg/mL streptomycin), careful trituration of the DRG was carried out using sterile fire polished glass pipettes of decreasing diameter and the cells were plated on coated glass coverslips (BD Biosciences, BD Biocoat, poly-D-Lysine), contained in 35 mm tissue culture dishes so that the cells could be easily transferred to the recording chamber mounted on an Olympus IX51 […] microscope for electrophysiological recording. Cells were incubated under standard tissue culture conditions (36° C. in a humidified atmosphere of 5% CO2, 95% air) and were used within 48-72 hours of plating.
(§3) Whole-cell patch-clamp recordings were conducted at room temperature ([…]) using an Axopatch 200B amplifier (Axon Instruments Inc., USA) with 3-7 MΩ electrodes, depending on the patch success rate and recording quality. Data were filtered and digitized appropriately. Current-clamp recordings were performed with pipette solution of the following composition: 140 mM KCl, 0.5 mM EGTA, 5 mM HEPES, 3 mM Mg-ATP and 3 mM Na-GTP (pH 7.3), adjusted to 310 mOsm/L with glucose. The bathing solution contained: 140 mM NaCl, 3 mM KCl, 2 mM MgCl2, 2 mM CaCl2, and 10 mM HEPES (pH 7.3), adjusted to 315 mOsm/L with glucose. Passive membrane properties (e.g. resting membrane potential (Vm)) were monitored during the first few minutes from establishing whole-cell access and periodically during recording. Evoked potential recordings commenced 3-5 minutes after establishing whole-cell configuration.
(§4) Flavesone test solutions were prepared fresh from a stock solution (96.7% w/w) on the day of recording. 100 μL of flavesone composition was mixed with 100 µL of Tween 80 and diluted to 10 mL in artificial cerebrospinal fluid (aCSF) to give a final flavesone concentration of 1%. The pH of the 1% solution was adjusted to 7.3 with 1M NaOH and diluted to 0.5% and 0.25% flavesone concentration with aCSF containing 1% Tween 80 immediately prior to use. Test compounds were applied using a DAD-16VC fast perfusion system (ALA Scientific Instruments, USA) and compared to the results gathered using control flow. The control was aSCF with 1% Tween 80.
(§5) Comparison samples of permethrin were prepared as 100 μM permethrin in […] (DMSO).
(§6) All analysis was conducted using Clampfit (MDS Analytical Technologies) and Excel (Microsoft) software. Statistical comparisons between groups were performed using the Student's t-test with P<0.05 taken to identify a significant difference.

sodium channels = assay: Sodium conductance in the DRG (voltage clamp recording); assay type: cell-based, Sprague-Dawley rats; conditions: for Normalised Na^+ Conductance Amplitude, Mean: Control = 100
Method: as §1, §2, §3, §4, §5, §6
Pyrethroids such as permethrin are known to be sodium channel modulators. Analysis of the effects of flavesone and permethrin on sodium conductance in the DRG was examined. […]

Aedes aegypti L3 larvae = assay: Mosquito larval topical dose-mortality assay (synergism); assay type: in vivo; conditions: for LC50: Aedes aegypti, topical
Method: The efficacy of a flavesone formulation against mosquito larvae was investigated together with investigation of the potential for synergistic action of flavesone and one or more technical grade insecticides. Dose-mortality assays were performed to evaluate the toxicity of technical grade insecticide, here the synthetic pyrethroid (SP) permethrin at various concentrations (minimum five dose points) alone and co-administered with flavesone at single point dose was performed. Assays were conducted using L3 larvae of the Liverpool (SP susceptible) and Puerto Rico (SP resistant) strains of the yellow fever mosquito, Aedes aegypti maintained in continuous culture at Purdue University, US. Larvae were transferred to a 24 well tissue plate using a wide-bore plastic transfer pipette, 5 larvae per well. The water was gently removed from the well with a 1 mL pipette and an equivalent amount of ddH2O was added. The appropriate volume of test compound was added to each of the four replicate wells per treatment and the plate gently swirled to ensure uniform mixing. The plate was placed in a test or growth chamber under constant conditions of 22-25° C. and about 75-85% relative humidity on a 12 h light/12 hr dark cycle. Assays were scored for the phenotypic endpoint of death/paralysis at 24, 48 and 72 hours post exposure. Each assay incorporated a positive (flavesone) and negative (vehicle only) control, and minimum of four technical replicates per dose of test chemistry. The data reported here represent three biological replicates.
Pilot assays were first employed to determine dose of flavesone (LC50, LC25 or LC10 dose as determined in previous dose-mortality tests) appropriate for synergism assays. […] The Synergistic Ratio (SR) for insecticide+flavesone combination is also shown and the synergistic action evaluated as per the published studies of Ahmed and Matsumura (2012, Journal of Medical Entomology 49(6):1405-10) and Ahmed and Vogel (2015, Acta Tropica 155:1-5).

Musca domestica = assay: Knockdown and mortality of houseflies exposed to treated tiles; assay type: in vivo
Method: Each formulation was filled into a hand-held pump sprayer. The treatments were applied to tiles from a distance of 20 cm. The tile was placed on a 0.5 m^2 grid and the entire 0.5 m^2 was sprayed, including the tile, at a rate of 50 mL/m^2. To ensure the correct volume was applied, the pump sprayer was weighed before and after spraying.
The tiles were left for two hours post-treatment to allow the formulation to dry on the tile, before evaluation started.
A control tile that was not treated with any formulation (untreated) was also used.
Ten mixed sex Musca domestica houseflies were placed in a plastic petri dish using a powered aspirator. The petri dish placed over a treated or control tile surface. The petri dish was perforated for ventilation with small holes and a cotton wool plug soaked in sugar solution provided moisture and plugged the insect introduction hole in the petri dish.
The houseflies were constantly exposed to a treated or untreated tile surface. The exposure took place at a temperature of 22±2° C. and about 50% relative humidity (RH).
After 30 minutes exposure, a piece of paper was placed over the tile surface to prevent contact of the houseflies with the treated or untreated tile. The houseflies were held at 22±2° C. and about 50% RH for 24 hours.
Housefly knockdown was noted 15 minutes and 30 minutes after beginning of exposure and 1, 2, 3 and 4 hours after initial exposure.
The above experiment was repeated four times to give five replicates. No statistical analysis was done.

[4] = 0.5% flavesone, Table 3, permethrin experiment
[5] = voltage clamp recording configuration

SMILES: CC(C)C(=O)C1C(=O)C(C)(C)C(=O)C(C)(C)C1=O [Flavesone, 1-isobutyroyl-3,3,5,5-tetramethylcyclohexan-2,4,6-trione]
- LC15 (Myzus persicae [1]): 1200 mg a.i./L
- LC30 (Myzus persicae [1]): 1800 mg a.i./L
- mortality at 1200 µg/mL (Myzus persicae [2]; 96 h): 10.9%
- mortality at 1800 µg/mL (Myzus persicae [2]; 96 h): 25.7%
- LC50 (Myzus persicae [2]; read-out: LC50 (95% CI's)): 2730 mg/L (≈ 10.8 mM)
- effect on potassium channels [3]: activates one or more potassium channels
- input resistance in DRG neurones [3]: reduced input resistance
- Vm (mV) Mean ([3]; 0.25% flavesone): −71.51 mV
- Δ Vm (mV) Mean ([3]; 0.25% flavesone): −7.80 mV
- Normalised No. of Action Potentials @ Vh −50 mV, Mean ([3]; 0.5% flavesone, Control = 100): 74.0
- Vm (mV) Mean ([3]; 0.5% flavesone, Table 2): −73.54 mV
- Δ Vm (mV) Mean ([3]; 0.5% flavesone, Table 2): −18.15 mV
- Vm (mV) Mean [3, 4]: −80.56 mV
- Δ Vm (mV) Mean [3, 4]: −19.63 mV
- Normalised Action Potentials Amplitude, Mean ([3]; 0.5% flavesone, Table 5, Control = 100): 77.72
- Normalised Action Potentials Amplitude, Mean ([3]; 0.5% flavesone, Table 6, Control = 100): 90.17
- Vm (mV) Mean ([3]; 1% flavesone): −83.75 mV
- Δ Vm (mV) Mean ([3]; 1% flavesone): −29.82 mV
- Normalised No. of Action Potentials @ Vh −50 mV, Mean ([3]; 1% flavesone, Control = 100): 65.8
- Normalised Action Potentials Amplitude, Mean ([3]; 1% flavesone, Table 5, Control = 100): 28.35
- Normalised Action Potentials Amplitude, Mean ([3]; 1% flavesone, Table 6, Control = 100): 91.50
- number of action potentials ([3]; flavesone, Table 4): slightly reduced
- amplitude of the action potentials ([3]; flavesone, Table 5): reduced
- action potential threshold ([3]; flavesone, Table 6): no significant effect
- resting potential from current-voltage relations ([3]; in the presence of flavesone): about −84 mV
- mean resting potential (Vm) ([3]; reduced from about −62 mV by flavesone): about −84 mV
- effect on sodium channels (sodium channels): no effect on sodium channels
- area under the curve (AUC) (sodium channels; 0.5% flavesone, 1% flavesone versus control and wash): no significant difference
- Normalised Na^+ Conductance Amplitude, Mean (sodium channels; 0.5% flavesone): 84.65
- Normalised Na^+ Conductance Amplitude, Mean (sodium channels; 1% flavesone): 77.56
- sodium conductance amplitude (sodium channels; flavesone, Table 10): no significant effect
- channel inactivation/deactivation (sodium channels; [5]): no effect
- reduction of sodium channel conductance (sodium channels; voltage clamp recording configuration, not significantly different to control): approximately 20%
- larval phenotype (Aedes aegypti L3 larvae; addition of flavesone): unambiguous “lethal” larval phenotype
- mortality (Musca domestica; both rates (200 mg/mL & 100 mg/mL), 24 hours post initial exposure): 100%
- knockdown of houseflies (Musca domestica; rates of 200 mg/mL & 100 mg/mL, after 15 minutes exposure): 100%

SMILES: CC1(C)C(C=C(Cl)Cl)C1C(=O)OCc1cccc(Oc2ccccc2)c1 (centres unmarked) [Permethrin]
- effect on potassium channels [3]: no effect on potassium channels
- input resistance in DRG neurones [3]: no effect on the input resistance
- effect on mean resting potential (Vm) ([3]; 100 μM): no effect
- Vm (mV) Mean ([3]; 100 μM permethrin): −61.48 mV
- Δ Vm (mV) Mean ([3]; 100 μM permethrin): −08 mV
- DRG Normalised No. of Action Potentials @ Vh −50 mV, Mean ([3]; 100 μM permethrin, Control = 100): 17.95
- Normalised Action Potentials Amplitude, Mean ([3]; 100 μM permethrin, Table 8, Control = 100): 99.46
- Normalised Action Potentials Amplitude, Mean ([3]; 100 μM permethrin, Table 9, Control = 100): 100.20
- number of action potentials ([3]; permethrin 100 μM, Table 7): significantly reduced
- amplitude of the actions ([3]; permethrin 100 μM, Table 8): no effect
- action potential threshold ([3]; permethrin 100 μM, Table 9): no effect
- effect on sodium channels (sodium channels): had an effect on sodium channels
- Normalised Na^+ Conductance Amplitude, Mean (sodium channels; 100 μM permethrin, Table 11): 103.47
- Normalised Na^+ Conductance Amplitude, Mean (sodium channels; 100 μM permethrin, Table 12): 282.56
- sodium conductance amplitude (sodium channels; permethrin, Table 11): little effect
- area under the curve (AUC) (sodium channels; permethrin, Table 12): significant increase
- channel inactivation/deactivation (sodium channels; [5]): significantly prolonged channel inactivation
- LC50 (Aedes aegypti L3 larvae; 24 h, read-out: LC50 (ng/ml) (95% CL), Permethrin Dose-Mortality, L3 larvae, Liverpool (LVP, SP susceptible) strain, 24 hours post exposure, Permethrin alone): 26.7 ng/mL
- LC50 (Aedes aegypti L3 larvae; 24 h, read-out: LC50 (ng/ml) (95% CL), Permethrin Dose-Mortality, L3 larvae, Puerto Rico (PRS, SP resistant) strain, 24 hours post exposure, Permethrin alone): 280 ng/mL
- LC50 (Aedes aegypti L3 larvae; 48 h, read-out: LC50 (ng/ml) (95% CL), Permethrin Dose-Mortality, L3 larvae, Liverpool (LVP, SP susceptible) strain, 48 hours post exposure, Permethrin alone): 24.3 ng/mL
- LC50 (Aedes aegypti L3 larvae; 48 h, read-out: LC50 (ng/ml) (95% CL), Permethrin Dose-Mortality, L3 larvae, Puerto Rico (PRS, SP resistant) strain, 48 hours post exposure, Permethrin alone): 231 ng/mL
- level of resistance to Permethrin (Aedes aegypti L3 larvae; Puerto Rico strain larvae as compared to Liverpool strain larvae): approximately 10 fold
- mortality (Musca domestica; 1.25 mg/mL rate, 24 hours post-initial exposure): 62%
- knockdown of houseflies (Musca domestica; 2.5 mg/mL and 1.25 mg/mL, any assessment time): < 100%
- mortality (Musca domestica; 2.5 mg/mL rate, 24 hours post-initial exposure): 72%
- knockdown of houseflies (Musca domestica; both rates (2.5 and 1.25 mg/mL), 1-hour post initial exposure): 94%
